Assay results from patent publication US10052320B2, “Substituted quinoxalines as FGFR kinase inhibitors” (ASTEX THERAPEUTICS LIMITED, priority 2011, dated 2018).
“And” between values parts separate entries of the source, which are not always exact repeats. Identical values can stand only once. Like-named read-outs stand apart in the source and are kept apart here.

Tests used:
[1] = tested on: Ba/F3-FGFR1-transfected cells in the presence of 10 ng/ml murine IL3; assay: Ba/F3-FGFR1 (plus IL3) cellular proliferation counterscreen, Alamar Blue; format: cell-based; conditions: Mus musculus
Outline: (§1)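 24 h cmpd exposure, 37 °C/5% CO2; phenol red-free RPMI-1640, 10% FBS; 20000 cells/well (384) or 10000 cells/well (96); Alamar Blue (0.15 mM resazurin) 4 h; RFU ex 540/em 590.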

[2] = biological target: FGFR4 (h) (Homo sapiens, UniProt P22455); assay: FGFR4 (enzymatic assay), TR-FRET; format: biochemical; conditions: read-out: FGFR 4 pIC50 (converted)
Sequence of FGFR4 (h) (P22455 22-802): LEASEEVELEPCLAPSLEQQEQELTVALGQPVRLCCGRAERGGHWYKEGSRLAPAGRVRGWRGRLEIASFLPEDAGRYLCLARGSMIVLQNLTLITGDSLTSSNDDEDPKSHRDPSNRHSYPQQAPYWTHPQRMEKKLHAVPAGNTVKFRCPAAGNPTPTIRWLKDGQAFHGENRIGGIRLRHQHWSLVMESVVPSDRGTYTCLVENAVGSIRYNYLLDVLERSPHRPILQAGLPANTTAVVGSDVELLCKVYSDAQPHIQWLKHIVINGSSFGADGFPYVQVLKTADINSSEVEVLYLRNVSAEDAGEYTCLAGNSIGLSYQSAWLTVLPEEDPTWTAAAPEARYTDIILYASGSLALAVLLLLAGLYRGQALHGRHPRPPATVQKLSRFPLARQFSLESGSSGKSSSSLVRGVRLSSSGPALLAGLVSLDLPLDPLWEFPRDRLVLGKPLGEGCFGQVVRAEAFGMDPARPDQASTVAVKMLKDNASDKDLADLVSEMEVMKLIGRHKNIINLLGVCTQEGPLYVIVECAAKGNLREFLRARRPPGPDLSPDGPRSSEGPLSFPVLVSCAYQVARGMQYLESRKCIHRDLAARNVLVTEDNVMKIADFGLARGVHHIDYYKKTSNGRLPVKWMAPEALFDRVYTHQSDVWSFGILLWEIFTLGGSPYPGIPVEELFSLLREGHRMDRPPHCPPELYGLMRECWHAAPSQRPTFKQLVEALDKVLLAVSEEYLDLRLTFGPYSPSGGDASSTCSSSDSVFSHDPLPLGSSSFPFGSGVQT
Experimental: (§2) In a final reaction volume of 30 μL, FGFR4 (h) (60 ng/ml) was incubated with 50 mM HEPES pH 7.5, 6 mM MnCl2, 1 mM DTT, 0.1 mM Na3VO4, 0.01% Triton-X-100, 500 nM Btn-Flt3 and 5 μM ATP in the presence of compound (1% DMSO final). […] Time-Resolved Fluorescence Resonance Energy Transfer (TR-FRET) signal (ex340 nm. Em 620 nm, em 655 nm) was measured afterwards and results are expressed in RFU (Relative Fluorescence Units).

[3] = biological target: FGFR3 (h) (Homo sapiens, UniProt P22607); assay: FGFR3 (enzymatic assay), TR-FRET; format: biochemical; conditions: read-out: FGFR 3 pIC50 (converted)
Sequence of FGFR3 (h) (P22607 23-806): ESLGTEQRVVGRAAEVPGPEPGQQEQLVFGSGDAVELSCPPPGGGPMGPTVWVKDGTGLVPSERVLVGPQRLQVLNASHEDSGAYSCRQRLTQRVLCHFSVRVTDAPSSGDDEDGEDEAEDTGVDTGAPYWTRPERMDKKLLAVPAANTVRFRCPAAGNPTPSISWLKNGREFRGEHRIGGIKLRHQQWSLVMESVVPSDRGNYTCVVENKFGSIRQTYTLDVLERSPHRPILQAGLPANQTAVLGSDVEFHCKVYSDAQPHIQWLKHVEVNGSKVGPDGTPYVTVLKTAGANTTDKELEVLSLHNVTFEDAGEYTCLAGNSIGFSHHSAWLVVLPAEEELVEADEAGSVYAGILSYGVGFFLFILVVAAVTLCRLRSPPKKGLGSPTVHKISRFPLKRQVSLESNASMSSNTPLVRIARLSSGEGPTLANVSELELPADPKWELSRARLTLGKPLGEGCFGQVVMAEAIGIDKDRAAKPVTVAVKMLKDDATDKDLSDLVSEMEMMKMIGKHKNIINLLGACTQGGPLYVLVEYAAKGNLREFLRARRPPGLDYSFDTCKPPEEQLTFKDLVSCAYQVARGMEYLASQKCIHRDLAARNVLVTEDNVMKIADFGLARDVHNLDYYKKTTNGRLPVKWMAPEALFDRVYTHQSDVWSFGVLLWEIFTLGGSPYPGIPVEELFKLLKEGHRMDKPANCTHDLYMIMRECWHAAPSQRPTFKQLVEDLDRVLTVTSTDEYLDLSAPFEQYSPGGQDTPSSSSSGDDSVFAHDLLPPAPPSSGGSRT
Experimental: as §2, with “μL, FGFR3” for “μL, FGFR4”, “(h) (40” for “(h) (60”, “and 25” for “and 5”

[4] = tested on: Ba/F3-Flt3-transfected cells in the presence of 10 ng/ml murine IL3; assay: Ba/F3-Flt3 (plus IL3) cellular proliferation counterscreen, Alamar Blue; format: cell-based; conditions: Mus musculus; plus 10 ng/ml murine IL3; read-out: BAF3-FLT3 (PLUS IL3) 384 well pIC50 (converted)
[5] = biological target: Ba/F3-FGFR1-transfected cells (Homo sapiens, UniProt P11362); assay: Ba/F3-FGFR1 (minus IL3) cellular proliferation assay, Alamar Blue; format: cell-based; conditions: for BAF3-FGFR 1 (MIN IL3) 384 well pIC50: minus IL3, 384 well; for BAF3-FGFR 1 (MIN IL3) 96 well pIC50: minus IL3, 96 well
Sequence of Ba/F3-FGFR1-transfected cells (P11362 whole entry, change not shown): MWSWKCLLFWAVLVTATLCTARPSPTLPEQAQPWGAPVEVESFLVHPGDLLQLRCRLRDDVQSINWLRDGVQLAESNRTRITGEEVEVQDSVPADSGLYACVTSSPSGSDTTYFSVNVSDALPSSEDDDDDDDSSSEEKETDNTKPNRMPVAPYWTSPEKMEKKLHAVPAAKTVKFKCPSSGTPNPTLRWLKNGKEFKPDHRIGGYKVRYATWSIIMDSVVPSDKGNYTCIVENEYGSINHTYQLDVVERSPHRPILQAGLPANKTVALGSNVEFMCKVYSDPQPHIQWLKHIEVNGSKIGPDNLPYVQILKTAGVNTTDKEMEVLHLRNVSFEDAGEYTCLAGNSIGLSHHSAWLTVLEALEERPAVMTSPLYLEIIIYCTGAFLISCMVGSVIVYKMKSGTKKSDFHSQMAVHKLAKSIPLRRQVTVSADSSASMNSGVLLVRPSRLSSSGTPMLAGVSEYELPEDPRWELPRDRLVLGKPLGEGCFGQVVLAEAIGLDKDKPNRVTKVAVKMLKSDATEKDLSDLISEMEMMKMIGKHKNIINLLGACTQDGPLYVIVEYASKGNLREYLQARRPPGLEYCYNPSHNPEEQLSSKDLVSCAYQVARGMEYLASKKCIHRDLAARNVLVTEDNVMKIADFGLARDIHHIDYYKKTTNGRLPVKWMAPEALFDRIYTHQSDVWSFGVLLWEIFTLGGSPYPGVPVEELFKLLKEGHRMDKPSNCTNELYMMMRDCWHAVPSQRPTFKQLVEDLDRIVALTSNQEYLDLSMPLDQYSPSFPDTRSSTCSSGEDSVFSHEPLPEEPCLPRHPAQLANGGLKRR
Outline: as §1

[6] = biological target: FGFR2 (h) (Homo sapiens, UniProt P21802); assay: FGFR2 (enzymatic assay), TR-FRET; format: biochemical; conditions: read-out: FGFR 2 pIC50 (converted)
Sequence of FGFR2 (h) (P21802 22-821): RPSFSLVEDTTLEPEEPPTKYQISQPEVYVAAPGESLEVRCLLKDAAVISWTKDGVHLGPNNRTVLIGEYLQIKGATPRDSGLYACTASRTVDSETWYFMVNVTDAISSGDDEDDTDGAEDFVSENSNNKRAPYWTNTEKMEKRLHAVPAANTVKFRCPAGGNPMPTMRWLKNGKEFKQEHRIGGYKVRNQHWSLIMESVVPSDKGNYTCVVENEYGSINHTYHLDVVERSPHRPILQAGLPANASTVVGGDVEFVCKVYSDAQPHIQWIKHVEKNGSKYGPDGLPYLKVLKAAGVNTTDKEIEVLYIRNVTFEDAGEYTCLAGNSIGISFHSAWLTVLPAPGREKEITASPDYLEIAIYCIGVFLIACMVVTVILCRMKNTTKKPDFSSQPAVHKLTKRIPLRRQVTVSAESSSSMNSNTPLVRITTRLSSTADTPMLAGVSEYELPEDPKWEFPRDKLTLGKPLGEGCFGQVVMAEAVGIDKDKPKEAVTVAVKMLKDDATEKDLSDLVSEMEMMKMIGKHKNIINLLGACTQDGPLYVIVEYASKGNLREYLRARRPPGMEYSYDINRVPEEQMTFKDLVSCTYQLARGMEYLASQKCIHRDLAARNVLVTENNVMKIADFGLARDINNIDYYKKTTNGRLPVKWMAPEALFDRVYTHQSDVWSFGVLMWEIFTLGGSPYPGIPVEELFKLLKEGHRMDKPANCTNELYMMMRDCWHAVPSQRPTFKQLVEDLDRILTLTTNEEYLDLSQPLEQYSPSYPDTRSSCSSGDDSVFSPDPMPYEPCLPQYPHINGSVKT
Experimental: as §2, with “μL, FGFR2” for “μL, FGFR4”, “(h) (150” for “(h) (60”, “and 0.4” for “and 5”, “in” for “in RFU”

[7] = plus IL3, 384 well, read-out: BAF3-FGFR 1 (PLUS IL3) 384 well pIC50 (converted)
[8] = plus IL3, 96 well, read-out: BAF3-FGFR 1 (PLUS IL3) 96 well pIC50 (converted)

Row | SMILES | IC50 [1, 7] | IC50 [2] | IC50 [3] | melting point | IC50 [4] | BAF3-FGFR 1 (MIN IL3) 384 well pIC50 [5] | IC50 [6] | IC50 [1, 8] | BAF3-FGFR 1 (MIN IL3) 96 well pIC50 [5]
1 | COc1cc(OC)cc(N(CCO)c2ccc3ncc(-c4ccnc(C(=O)NCCCN)c4)nc3c2)c1 [Compound 123] | > 10000 nM | 245 nM | 14.5 nM | 103 °C | > 10000 nM | 5.22 | 25.7 nM | – | –
2 | COc1cc(OC)cc(N(CC2CC2)c2ccc3ncc(-n4cncn4)nc3c2)c1 [Compound 50] | > 10000 nM | > 1000 nM | 447 nM | 168 °C | > 10000 nM | <5 | ~708 nM | > 10000 nM | <5
3 | COc1cc(OC)cc(N(CC2CC2)c2ccc3ncc(-c4cn[nH]n4)nc3c2)c1 [Compound 69] | > 10000 nM | 251 nM | 61.7 nM | 173 °C and 172 °C | > 10000 nM | 5.01 | 166 nM | > 10000 nM | 5.22
4 | COc1cc(OC)cc(N(CC2CC2)c2ccc3ncc(-c4nnnn4C)nc3c2)c1 [Compound 83] | > 10000 nM | > 1000 nM | > 1000 nM | 168 °C | > 10000 nM | <5 | > 1000 nM | > 10000 nM | <5
5 | COc1cc(OC)cc(N(CCCO)c2ccc3ncc(-c4cccnc4)nc3c2)c1 [Compound 112] | > 10000 nM | 58.9 nM | 7.41 nM | 150 °C | > 10000 nM | 6.11 | 20.9 nM | – | –
6 | COc1cc(OC)cc(N(CC2CC2)c2ccc3ncc(C#Cc4ccncc4)nc3c2)c1 [Compound 23] | > 10000 nM | > 1000 nM | 214 nM | 60 °C | > 10000 nM | 5.09 | 427 nM | 5890 nM | 5.41
7 | CNC(=O)OCCN(c1cc(OC)cc(OC)c1)c1ccc2ncc(-c3ccc(NC(=O)OC(C)(C)C)nc3)nc2c1 [Compound 80] | > 10000 nM | > 1000 nM | ~347 nM | 214 °C | > 10000 nM | 5.08 | 912 nM | – | –
8 | COc1cc(OC)cc(N(CCNC(C)C)c2ccc3ncc(-c4ccc(N)nc4)nc3c2)c1 [Compound 17] | ~7760 nM | 8.04 nM | 3.2 nM | 144 °C | > 9550 nM | 6.975 | 2.11 nM | – | –
9 | COc1cc(OC)cc(N(CCCO)c2ccc3ncc(-c4ccc(N5CCNCC5)nc4)nc3c2)c1 [Compound 48] | ~5250 nM | 15.5 nM | 3.31 nM | 184 °C | 4170 nM | 6.92 | 4.07 nM | – | –
10 | COc1cc(OC)cc(N(CC2CC2)c2ccc3ncc(-c4cnco4)nc3c2)c1 [Compound 55] | > 10000 nM | 275 nM | 30.9 nM | 152 °C | > 10000 nM | <5 | 47.9 nM | > 10000 nM | 5.37
11 | COCCN(c1cc(OC)cc(OC)c1)c1ccc2ncc(-c3ccn(C)c3)nc2c1 [Compound 6] | > 10000 nM | 24.5 nM | 6.92 nM | 135 °C | > 10000 nM | 5.84 | 12 nM | – | –
12 | COc1cc(OC)cc(N(CC2CC2)c2ccc3ncc(-n4ccc(C)n4)nc3c2)c1 [Compound 31] | > 10000 nM | 776 nM | 339 nM | 107 °C | > 10000 nM | <5 | > 1000 nM | > 10000 nM | <5
13 | COc1cc(OC)cc(N(CCCO)c2ccc3ncc(-c4ccnc(C(=O)NCCCN)c4)nc3c2)c1 [Compound 33] | > 10000 nM | 115 nM | 19.1 nM | 110 °C | > 10000 nM | 5.1 | 22.9 nM | – | –
14 | COc1cc(OC)cc(N(CCO)c2ccc3ncc(-c4ccncc4)nc3c2)c1 [Compound 11] | > 10000 nM | 41.7 nM | 4.47 nM | 158 °C | > 10000 nM | 6.01 | 14.1 nM | – | –
15 | CNc1ccc(-c2cnc3ccc(N(CCCO)c4cc(OC)cc(OC)c4)cc3n2)cn1 [Compound 116] | > 10000 nM | 17.8 nM | 3.24 nM | 188 °C | > 10000 nM | 5.9 | 10.7 nM | – | –
16 | COc1cc(OC)cc(N(CC2CC2)c2ccc3ncc(-n4nccc4C)nc3c2)c1 [Compound 62] | > 10000 nM | > 1000 nM | > 1000 nM | 139 °C | > 10000 nM | <5 | > 1000 nM | > 10000 nM | <5
17 | COc1cc(OC)cc(N(CC2CC2)c2ccc3ncc(-c4nccn4C)nc3c2)c1 [Compound 60] | > 10000 nM | 1120 nM | 955 nM | 175 °C | > 10000 nM | <5 | 1410 nM | > 10000 nM | <5
18 | COc1cc(OC)cc(N(CCO)c2ccc3ncc(-c4ccccc4)nc3c2)c1 [Compound 120] | > 10000 nM | 20 nM | 3.98 nM | 124 °C | > 10000 nM | 5.71 | 15.1 nM | – | –
19 | COc1cc(OC)cc(N(CC2CC2)c2ccc3ncc(-c4cn(CCO)nn4)nc3c2)c1 [Compound 40] | > 10000 nM | 302 nM | 49 nM | 178 °C and 177 °C | > 10000 nM | 5.24 | 89.1 nM | > 10000 nM | 5.4
20 | COc1cc(OC)cc(N(CC2CO2)c2ccc3ncc(-c4ccc(N)nc4)nc3c2)c1 (centres unmarked) [Compound 110] | > 10000 nM | 145 nM | 21.4 nM | 169 °C | > 10000 nM | 6.25 | 17.4 nM | – | –
21 | COc1cc(OC)cc(N(CC2CC2)c2ccc3ncc(-c4cnnn4C)nc3c2)c1 [Compound 72] | > 10000 nM | > 1000 nM | 389 nM | 169 °C | > 10000 nM | 5.18 | 479 nM | 7940 nM | 5.23
22 | COc1cc(OC)cc(N(CCCO)c2ccc3ncc(-c4ccnc(N)c4)nc3c2)c1 [Compound 66] | > 10000 nM | 13.2 nM | 2.09 nM | 137 °C | > 10000 nM | 7.16 | 4.07 nM | – | –
23 | CNC(=O)c1cc(-c2cnc3ccc(N(CCN4CCCC4=O)c4cc(OC)cc(OC)c4)cc3n2)ccn1 [Compound 25] | > 10000 nM | > 1000 nM | 282 nM | 176 °C | > 10000 nM | 5.05 | 251 nM | – | –
24 | COc1cc(OC)cc(N(CCCO)c2ccc3ncc(-c4ccnc(NC(=O)OC(C)(C)C)c4)nc3c2)c1 [Compound 128] | > 10000 nM | > 1000 nM | 33.9 nM | 213 °C | > 10000 nM | <5 | 135 nM | – | –
